# Values of other authors as cited in US7892523B2, “Cosmetic process for the treatment of the skin with sun-protection products and sun-protection products combination” (Coty B.V., priority 2004, dated 2011).
# Settings: known RPFs of standard antioxidants / usual formulations
row,SMILES,radical protection factor (RPF)
1,Cc1c(C)c2c(c(C)c1O)CCC(C)(CCCC(C)CCCC(C)CCCC(C)C)O2 (racemic) [DL-α-tocopherol],"41,200 ×10^14 radicals/mg"
2,CC(=O)OC/C=C(C)/C=C/C=C(C)/C=C/C1=C(C)CCCC1(C)C [all-trans-retinol acetate],196 ×10^14 radicals/mg
3,CC1=C(/C=C/C(C)=C/C=C/C(C)=C/CO)C(C)(C)CCC1 [all-trans-retinol],827 ×10^14 radicals/mg
4,CC(=O)Oc1c(C)c(C)c2c(c1C)CCC(C)(CCC[C@H](C)CCC[C@H](C)CCCC(C)C)O2 (stereo partly drawn) [α-tocopherol acetate],48 ×10^14 radicals/mg
